Key:
[1] = target: T1, telomerase (Homo sapiens, UniProt O14746); assay: TRAP / RTQ-TRAP telomerase activity assay in A549 cell-free lysates; assay type: biochemical; conditions: telomerase inhibition, mean ± SEM;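 further: telomerase activity measured in cell-free extracts of human A549 epithelial lung carcinoma cells, tested across a range of inhibitor concentrations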
T1 construct: A549 cells (human epithelial cell lung carcinoma, ATCC, Manassas, VA) were lysed in; host or cells: A549 cell lysate (CHAPS extract, 5 µg total protein)
T1 sequence (O14746 whole entry): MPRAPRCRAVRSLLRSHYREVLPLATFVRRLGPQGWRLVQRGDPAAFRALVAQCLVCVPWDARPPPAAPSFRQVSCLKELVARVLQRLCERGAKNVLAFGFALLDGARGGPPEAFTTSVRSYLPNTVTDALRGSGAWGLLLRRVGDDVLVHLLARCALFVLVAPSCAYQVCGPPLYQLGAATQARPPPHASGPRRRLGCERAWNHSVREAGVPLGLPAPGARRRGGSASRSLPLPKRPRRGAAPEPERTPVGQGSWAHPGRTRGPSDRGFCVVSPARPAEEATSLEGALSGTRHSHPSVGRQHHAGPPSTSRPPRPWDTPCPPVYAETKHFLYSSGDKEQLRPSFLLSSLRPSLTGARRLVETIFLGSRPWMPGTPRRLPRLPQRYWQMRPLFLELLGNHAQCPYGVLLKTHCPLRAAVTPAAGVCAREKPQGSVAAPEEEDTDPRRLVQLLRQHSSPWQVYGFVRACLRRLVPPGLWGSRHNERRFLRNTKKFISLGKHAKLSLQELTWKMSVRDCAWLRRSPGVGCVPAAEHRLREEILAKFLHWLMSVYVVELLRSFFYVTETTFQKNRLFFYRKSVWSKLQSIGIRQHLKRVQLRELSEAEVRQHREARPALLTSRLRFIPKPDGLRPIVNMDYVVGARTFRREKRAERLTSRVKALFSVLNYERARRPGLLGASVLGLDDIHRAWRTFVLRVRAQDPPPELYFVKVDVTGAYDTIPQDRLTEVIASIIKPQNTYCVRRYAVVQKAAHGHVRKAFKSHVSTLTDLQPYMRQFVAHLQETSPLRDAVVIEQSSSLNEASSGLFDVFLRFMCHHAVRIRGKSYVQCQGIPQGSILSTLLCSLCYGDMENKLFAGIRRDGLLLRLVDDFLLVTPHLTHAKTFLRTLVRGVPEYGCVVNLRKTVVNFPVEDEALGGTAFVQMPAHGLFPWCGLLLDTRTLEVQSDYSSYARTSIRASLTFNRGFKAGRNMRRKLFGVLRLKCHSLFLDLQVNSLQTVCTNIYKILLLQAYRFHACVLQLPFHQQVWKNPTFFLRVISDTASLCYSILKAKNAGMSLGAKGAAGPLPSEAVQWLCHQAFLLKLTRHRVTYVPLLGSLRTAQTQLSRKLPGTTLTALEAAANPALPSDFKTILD
T1 sequence (O60832 whole entry partner): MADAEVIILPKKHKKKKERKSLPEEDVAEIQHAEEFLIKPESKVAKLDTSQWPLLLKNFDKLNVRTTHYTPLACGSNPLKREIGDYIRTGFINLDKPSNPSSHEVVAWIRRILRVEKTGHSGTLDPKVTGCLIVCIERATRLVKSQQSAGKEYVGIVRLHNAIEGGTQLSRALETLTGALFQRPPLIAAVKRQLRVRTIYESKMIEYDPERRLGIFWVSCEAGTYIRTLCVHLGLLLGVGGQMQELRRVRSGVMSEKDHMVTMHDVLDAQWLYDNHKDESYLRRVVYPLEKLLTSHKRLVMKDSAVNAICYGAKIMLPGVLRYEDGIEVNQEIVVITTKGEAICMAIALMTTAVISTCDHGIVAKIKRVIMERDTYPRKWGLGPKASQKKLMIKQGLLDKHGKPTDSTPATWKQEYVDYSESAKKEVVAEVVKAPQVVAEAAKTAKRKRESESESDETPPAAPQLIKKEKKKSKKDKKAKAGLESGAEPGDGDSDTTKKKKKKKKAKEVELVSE
T1 sequence (Q9NX24 whole entry partner): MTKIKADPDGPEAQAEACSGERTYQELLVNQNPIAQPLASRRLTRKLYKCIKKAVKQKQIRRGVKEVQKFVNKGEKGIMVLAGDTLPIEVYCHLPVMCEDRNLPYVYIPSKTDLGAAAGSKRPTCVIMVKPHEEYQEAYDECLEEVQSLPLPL
T1 sequence (Q9NPE3 whole entry partner): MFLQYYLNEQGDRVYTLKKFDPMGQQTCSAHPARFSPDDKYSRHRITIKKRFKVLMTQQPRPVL
T1 sequence (Q9NY12 whole entry partner): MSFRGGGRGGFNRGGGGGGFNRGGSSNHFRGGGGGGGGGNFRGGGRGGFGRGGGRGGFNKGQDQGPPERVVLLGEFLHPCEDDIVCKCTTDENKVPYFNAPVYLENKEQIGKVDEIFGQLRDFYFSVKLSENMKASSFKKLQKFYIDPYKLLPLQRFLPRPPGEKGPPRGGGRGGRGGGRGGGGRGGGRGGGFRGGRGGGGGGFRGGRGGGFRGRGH
T1 sequence (Q9BUR4 whole entry partner): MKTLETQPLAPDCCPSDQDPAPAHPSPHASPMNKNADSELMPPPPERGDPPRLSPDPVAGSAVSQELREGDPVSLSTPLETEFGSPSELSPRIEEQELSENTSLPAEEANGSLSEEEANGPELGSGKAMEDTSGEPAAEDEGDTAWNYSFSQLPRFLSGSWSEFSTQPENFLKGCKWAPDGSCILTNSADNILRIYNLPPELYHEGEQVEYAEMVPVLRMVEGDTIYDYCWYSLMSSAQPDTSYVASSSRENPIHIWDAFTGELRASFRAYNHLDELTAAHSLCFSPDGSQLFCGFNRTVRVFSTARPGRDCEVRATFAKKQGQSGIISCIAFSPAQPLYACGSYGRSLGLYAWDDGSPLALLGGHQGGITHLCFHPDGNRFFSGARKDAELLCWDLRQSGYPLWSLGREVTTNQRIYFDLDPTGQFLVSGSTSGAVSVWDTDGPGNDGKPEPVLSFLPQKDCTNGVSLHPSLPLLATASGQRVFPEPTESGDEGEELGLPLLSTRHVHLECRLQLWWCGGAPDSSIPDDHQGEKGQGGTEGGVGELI

| IC50 [1] [µM] | IC90 [1] [µM] | melting point [°C] | Compound |
| --- | --- | --- | --- |
| 2.5 ± 0.1 | 9.5 ± 0.3 | 284 to 286 | N#C/C(=C\c1c[nH]c2ccccc12)C(=O)Nc1sc2c(c1C#N)CCC2 [Compound 39a, (2E)-2-Cyano-N-{3-cyano-4H,5H,6H-cyclopenta[b]thiophen-2-yl}-3-(1H-indol-3-yl)prop-2-enamide] |
| 25.4 ± 1 | 282 | 219 to 221 | N#C/C(=C\c1ccc2c(c1)OCO2)C(=O)Nc1sc2c(c1C#N)CCC2 [Compound 38a, (2E)-3-(2H-1,3-Benzodioxol-5-yl)-2-cyano-N-{3-cyano-4H,5H,6H-cyclopenta[b]thiophen-2-yl}prop-2-enamide] |
| 89.9 ± 3.6 | 165 | 257 to 259 | CN1CCN(c2ccc(/C=C(\C#N)C(=O)Nc3sc4c(c3C#N)CCCC4)cc2)CC1 [Compound 31b, (2E)-2-Cyano-N-(3-cyano-4,5,6,7-tetrahydro-1-benzothiophen-2-yl)-3-[4-(4-methylpiperazin-1-yl)phenyl]prop-2-enamide] |
| 25.8 ± 1 | 140 ± 4.7 | 225 to 227 | N#C/C(=C\c1ccc(C(F)(F)F)cc1)C(=O)Nc1sc2c(c1C#N)CCCC2 [Compound 25b, (2E)-2-Cyano-N-(3-cyano-4,5,6,7-tetrahydro-1-benzothiophen-2-yl)-3-[4-(trifluoromethyl)phenyl]prop-2-enamide] |
| 38.8 ± 1 | 284 ± 6.6 | 263 to 265 | N#C/C(=C\c1c[nH]nc1-c1ccccc1)C(=O)Nc1sc2c(c1C#N)CCCC2 [Compound 34b, (2E)-2-Cyano-N-(3-cyano-4,5,6,7-tetrahydro-1-benzothiophen-2-yl)-3-(3-phenyl-1H-pyrazol-4-yl)prop-2-enamide] |
| 97.8 ± 2.6 | 174 | 226 to 228 | N#C/C(=C\c1cccc2c1OCO2)C(=O)Nc1sc2c(c1C#N)CCCC2 [Compound 37b, (2E)-3-(2H-1,3-Benzodioxol-4-yl)-2-cyano-N-(3-cyano-4,5,6,7-tetrahydro-1-benzothiophen-2-yl)prop-2-enamide] |

Second part, the compound before the results:

| Compound | IC50 [1] [µM] | IC90 [1] [µM] | melting point [°C] |
| --- | --- | --- | --- |
| COc1cc(/C=C(\C#N)C(=O)Nc2sc3c(c2C#N)CCCC3)ccc1OCc1ccccc1 [Compound 32b, (2E)-3-[4-(Benzyloxy)-3-methoxyphenyl]-2-cyano-N-(3-cyano-4,5,6,7-tetrahydro-1-benzothiophen-2-yl)prop-2-enamide] | 110 ± 3.7 | 181 | 220 to 222 |
| N#C/C(=C\c1ccc(C(F)(F)F)cc1)C(=O)Nc1sc2c(c1C#N)CCC2 [Compound 25a, (2E/2Z)-2-Cyano-N-{3-cyano-4H,5H,6H-cyclopenta[b]thiophen-2-yl}-3-[4-(trifluoromethyl)phenyl]prop-2-enamide] | 20.9 ± 0.7 | 109 ± 3.2 | 354 to 356 |
| N#C/C(=C\c1ccc2c(c1)OCO2)C(=O)Nc1sc2c(c1C#N)CCCC2 [Compound 38b, (2E)-3-(2H-1,3-Benzodioxol-5-yl)-2-cyano-N-(3-cyano-4,5,6,7-tetrahydro-1-benzothiophen-2-yl)prop-2-enamide] | 40.3 ± 1.7 | 339 | 204 to 206 |
| N#C/C(=C\c1cccc(Cl)c1Cl)C(=O)Nc1sc2c(c1C#N)CCCC2 [Compound 28b, (2E)-2-Cyano-N-(3-cyano-4,5,6,7-tetrahydro-1-benzothiophen-2-yl)-3-(2,3-dichlorophenyl)prop-2-enamide] | 8.3 ± 0.3 | 57.4 | 232 to 234 |
| COc1cc(/C=C(\C#N)C(=O)Nc2sc3c(c2C#N)CCC3)ccc1OCc1ccccc1 [Compound 32a, (2E)-3-[4-(Benzyloxy)-3-methoxyphenyl]-2-cyano-N-{3-cyano-4H,5H,6H-cyclopenta[b]thiophen-2-yl}prop-2-enamide] | 6.4 ± 0.2 | 177 | 233 to 235 |

From publication PMC9025901, “New Genetic Bomb Trigger: Design, Synthesis, Molecular Dynamics Simulation, and Biological Evaluation of Novel BIBR1532-Related Analogs Targeting Telomerase against Non-Small Cell Lung Cancer” (Pharmaceuticals, 2022)
